pIC50: −log10 of the molar value.
Key:
[1] = Intravenous administration of dose resulting in 50% reduction in the number of writhes in male CF-1 mice.; assay type: functional; settings: Mus musculus
[2] = molecular target: Voltage-gated L-type calcium channel (Rattus norvegicus, UniProt P22002+Q02485+P27732); assay: L-type calcium channel blockade in A10 smooth muscle cells by Oregon Green 488 Bapta-1 dye; assay type: functional, cell-based
[3] = Electrophysiology tested by the voltage clamp assay using superior cervical ganglion calcium neuron (SCGCa); assay type: functional, tissue-based; settings: Rattus norvegicus
[4] = Electrophysiology tested by the voltage clamp assay using superior cervical ganglion potassium neuron (SCGK); assay type: functional, tissue-based; settings: Rattus norvegicus
[5] = Electrophysiology tested by the voltage clamp assay using superior cervical ganglion sodium neuron (SCGNa); assay type: functional, tissue-based; settings: Rattus norvegicus
[6] = system: Mus musculus; assay: Intravenous administration of dose required to prevent clonic seizures and tonic extension seizure of forelimbs and hindlimbs; assay type: functional; settings: Hindlimb
[7] = system: Rattus norvegicus; assay: Oral administration of dose resulting in 50% reduction in the number of flinches per minute
[8] = system: Rattus norvegicus; assay: Dose given at 15 and 30 mg/kg over 10 min resulting in 50% reduction in the number of flinches per minute when administarted intravenously.; settings: iv
[9] = species: Rattus norvegicus; assay: Intrathecal bolus injection of 12.5-100 microg of dose resulting in 50% reduction in the amount of foot withdraw responding to repeated mechanical stimuli

IC50 [2]: 0.4 µM
pIC50 [3]: 5.89
pIC50 [4]: 5.00
pIC50 [5]: 5.29
Structure (SMILES): CN[C@@H](CC(C)C)C(=O)NCCCC(c1ccc(F)cc1)c1ccc(F)cc1.Cl
ED50 [1]: 4.46 mg/kg
ED50 [6]: 4.05 mg/kg
ED50 [7]: 87 mg/kg
ED50 [8]: 16 mg/kg
ED50 [9]: 23 µg
